Laboratory results published in US11814367B2, “Inhibitors of glycogen synthase 1 (GYS1) and methods of use thereof” (Maze Therapeutics, Inc., priority 2021, dated 2023).

What was measured:
[1] = tested on: hGYS1 enzyme / glycogen synthesis in HeLa cells; assay: GYS1 cell based assay (glycogen synthesis, Glucose-glo); parameters: species or system human; settings: 24 h incubation, 20 mM glucose, geometric mean of at least 2 runs
How it was run: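 HeLa cells starved 24 h in medium containing only 1× Glutamax were plated onto compound in medium with 20 mM glucose (1% DMSO final) for 24 h, 37 °C, 5% CO2. Acid lysates were Tris-quenched, glucoamylase-digested (pH 5.3, 1 h, 37 °C) and read by Glucose-glo luminescence. IC50 came from Hill fits, as geometric mean of ≥2 runs.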

[2] = molecular target: hGYS2 enzyme (recombinant hGYS2/GN1 protein) (Homo sapiens (Human), UniProt P54840); assay: GYS2 coupled enzyme assay (PK/LDH); type: biochemical; settings: geometric mean of at least 2 assay runs on separate days, read-out: Avg_IC50
Sequence of hGYS2 enzyme (recombinant hGYS2/GN1 protein) (P54840 whole entry): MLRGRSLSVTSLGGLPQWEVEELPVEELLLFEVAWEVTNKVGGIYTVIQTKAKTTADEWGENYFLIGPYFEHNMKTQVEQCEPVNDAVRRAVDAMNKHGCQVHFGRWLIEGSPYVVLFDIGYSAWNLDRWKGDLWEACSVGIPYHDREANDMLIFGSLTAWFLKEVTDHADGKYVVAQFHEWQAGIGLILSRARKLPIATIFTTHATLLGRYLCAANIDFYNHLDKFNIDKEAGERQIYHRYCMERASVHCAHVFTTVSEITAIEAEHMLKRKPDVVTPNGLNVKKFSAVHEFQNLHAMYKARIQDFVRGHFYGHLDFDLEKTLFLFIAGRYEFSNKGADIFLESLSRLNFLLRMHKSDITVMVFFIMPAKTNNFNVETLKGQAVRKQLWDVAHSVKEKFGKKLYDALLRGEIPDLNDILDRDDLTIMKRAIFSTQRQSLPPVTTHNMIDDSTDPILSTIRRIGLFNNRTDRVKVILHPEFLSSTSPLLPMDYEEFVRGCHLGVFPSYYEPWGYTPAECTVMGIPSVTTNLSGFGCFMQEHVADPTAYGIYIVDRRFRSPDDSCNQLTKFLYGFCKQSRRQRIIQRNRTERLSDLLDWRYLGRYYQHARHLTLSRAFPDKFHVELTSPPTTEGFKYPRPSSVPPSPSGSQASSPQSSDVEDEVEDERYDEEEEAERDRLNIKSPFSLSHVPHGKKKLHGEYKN
Sequence of hGYS2 enzyme (recombinant hGYS2/GN1 protein) (P46976 whole entry partner): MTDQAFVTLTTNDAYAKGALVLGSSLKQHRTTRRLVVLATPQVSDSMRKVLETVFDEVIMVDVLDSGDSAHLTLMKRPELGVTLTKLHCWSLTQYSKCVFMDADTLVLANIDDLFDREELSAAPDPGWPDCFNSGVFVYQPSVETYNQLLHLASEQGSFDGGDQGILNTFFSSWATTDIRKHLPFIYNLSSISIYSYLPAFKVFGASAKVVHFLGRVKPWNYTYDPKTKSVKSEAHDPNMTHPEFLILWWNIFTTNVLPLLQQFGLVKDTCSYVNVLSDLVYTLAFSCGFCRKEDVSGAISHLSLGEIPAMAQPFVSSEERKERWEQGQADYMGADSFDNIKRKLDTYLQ
How it was run: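 Continuous PK/LDH-coupled readout of NADH loss at 340 nm over 10 min, with 200 nM hGYS2/GN1 and 2 mM each of UDP-glucose, glucose-6-phosphate and PEP, in 50 mM Tris pH 7.5 with 0.2% glycogen and 2.5% DMSO. Slopes were normalized to controls and IC50s fit to a Hill curve from duplicates.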

[3] = molecular target: hGYS1 enzyme (recombinant hGYS1/GN1 protein) (Homo sapiens (Human), UniProt P13807); assay: GYS1 coupled enzyme assay (PK/LDH); type: biochemical; settings: hGYS1/GN1 50 nM, UDP-Glucose 0.8 mM, G6P 1 mM; geometric mean of at least 2 runs
Sequence of hGYS1 enzyme (recombinant hGYS1/GN1 protein) (P13807 whole entry): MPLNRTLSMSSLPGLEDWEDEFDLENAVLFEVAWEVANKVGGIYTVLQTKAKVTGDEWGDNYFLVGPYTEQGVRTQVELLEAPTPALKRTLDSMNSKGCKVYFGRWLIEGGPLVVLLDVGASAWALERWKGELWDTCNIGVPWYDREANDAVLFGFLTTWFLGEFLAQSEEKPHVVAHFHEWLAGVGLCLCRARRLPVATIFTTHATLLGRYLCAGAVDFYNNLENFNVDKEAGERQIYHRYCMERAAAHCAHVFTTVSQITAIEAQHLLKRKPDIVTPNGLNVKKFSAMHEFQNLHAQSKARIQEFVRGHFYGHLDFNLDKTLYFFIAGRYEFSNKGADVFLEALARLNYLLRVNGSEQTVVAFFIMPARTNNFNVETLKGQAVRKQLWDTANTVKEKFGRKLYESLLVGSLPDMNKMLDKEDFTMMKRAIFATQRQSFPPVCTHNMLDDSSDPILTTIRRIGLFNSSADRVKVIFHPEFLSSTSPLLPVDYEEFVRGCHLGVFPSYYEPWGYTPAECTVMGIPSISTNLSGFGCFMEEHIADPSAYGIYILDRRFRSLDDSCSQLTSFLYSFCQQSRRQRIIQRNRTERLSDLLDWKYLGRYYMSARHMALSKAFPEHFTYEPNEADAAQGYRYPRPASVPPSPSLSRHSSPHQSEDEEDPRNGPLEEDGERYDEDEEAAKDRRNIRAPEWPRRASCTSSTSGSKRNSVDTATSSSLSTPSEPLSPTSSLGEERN
Sequence of hGYS1 enzyme (recombinant hGYS1/GN1 protein) (P46976 whole entry partner): as the sequence (P46976 whole entry partner) above

IC50 ([1]; Homo sapiens, HeLa, 24 h) [µM]	IC50 [2] [µM]	IC50 [3] [µM]	IC50 [1] [µM]	Structure (SMILES)
0.59	> 100	0.013		Cc1cn(CC(=O)N2C[C@H](F)C[C@H]2C(=O)N[C@@H](c2ccccc2)c2ccc(C3CC3)c(F)n2)c(=O)[nH]c1=O [Compound 295, (2S,4R)-N-[(S)-(5-cyclopropyl-6-fluoropyridin-2-yl)(phenyl)methyl]-4-fluoro-1-[2-(5-methyl-2,4-dioxo-1,2,3,4-tetrahydropyrimidin-1-yl)acetyl]pyrrolidine-2-carboxamide]
0.78	> 100	0.056		CC(=O)N1C[C@H](C(=O)N2C[C@H](F)C[C@H]2C(=O)N[C@@H](c2ccccc2)c2ccc(C(C)C)cc2)[C@H]2OCC[C@H]21 [Compound 166, (2S,4R)-1-[(3aR,6S,6aR)-4-acetyl-hexahydro-2H-furo[3,2-b]pyrrole-6-carbonyl]-4-fluoro-N-[(S)-phenyl[4-(propan-2-yl)phenyl]methyl]pyrrolidine-2-carboxamide]
0.53	> 100	0.035		CC(C)c1ccc([C@@H](NC(=O)[C@@H]2C[C@@H](F)CN2C(=O)Cn2cc(N(C)C)nn2)c2ccccc2)nc1 [Compound 260, (2S,4R)-1-{2-[4-(dimethylamino)-1H-1,2,3-triazol-1-yl]acetyl}-4-fluoro-N-[(S)-phenyl[5-(propan-2-yl)pyridin-2-yl]methyl]pyrrolidine-2-carboxamide]
0.29	> 100	0.01		CC(C)c1ccc([C@@H](NC(=O)[C@@H]2C[C@@H](F)CN2C(=O)Cc2nn(C)c(=O)o2)c2ccccc2)nc1F [Compound 401, (2S,4R)-4-fluoro-N-[(S)-[6-fluoro-5-(propan-2-yl)pyridin-2-yl](phenyl)methyl]-1-[2-(4-methyl-5-oxo-4,5-dihydro-1,3,4-oxadiazol-2-yl)acetyl]pyrrolidine-2-carboxamide]
0.31	> 100	0.019		CC(C)c1ccc([C@@H](NC(=O)[C@@H]2C[C@@H](F)CN2C(=O)COC(=O)N(C)C)c2ccccc2)cc1F [Compound 360, 2-[(2S,4R)-4-fluoro-2-{[(S)-[3-fluoro-4-(propan-2-yl)phenyl](phenyl)methyl]carbamoyl}pyrrolidin-1-yl]-2-oxoethyl N,N-dimethylcarbamate]
0.39	> 100	0.017		O=C(N[C@@H](c1ccccc1)c1ccc(C2CC2)c(F)n1)[C@@H]1C[C@@H](F)CN1C(=O)Cn1ncc(N2CCC2)n1 [Compound 317, (2S,4R)-1-{2-[4-(azetidin-1-yl)-2H-1,2,3-triazol-2-yl]acetyl}-N-[(S)-(5-cyclopropyl-6-fluoropyridin-2-yl)(phenyl)methyl]-4-fluoropyrrolidine-2-carboxamide]
0.17	> 100	0.009		Cc1nn(C)c(C)c1CC(=O)N1C[C@H](F)C[C@H]1C(=O)N[C@@H](c1ccccc1)c1ccc(C(C)C)cc1 [Compound 136, (2S,4R)-4-fluoro-N-[(S)-phenyl[4-(propan-2-yl)phenyl]methyl]-1-[2-(1,3,5-trimethyl-1H-pyrazol-4-yl)acetyl]pyrrolidine-2-carboxamide]
7.07	> 100	0.685		CC1(c2ccc([C@@H](NC(=O)[C@@H]3C[C@@H](F)CN3C(=O)CN3CCNCC3=O)c3ccccc3)cc2F)CC1 [Compound 562, (2S,4R)-4-fluoro-N-[(S)-[3-fluoro-4-(1-methylcyclopropyl)phenyl](phenyl)methyl]-1-[2-(2-oxopiperazin-1-yl)acetyl]pyrrolidine-2-carboxamide]
0.96	> 100	0.066		Cn1c(=O)ccn(CC(=O)N2C[C@H](F)C[C@H]2C(=O)N[C@@H](c2ccccc2)c2ccc(C3(C)CC3)c(F)c2)c1=O [Compound 569, (2S,4R)-4-fluoro-N-[(S)-[3-fluoro-4-(1-methylcyclopropyl)phenyl](phenyl)methyl]-1-[2-(3-methyl-2,4-dioxo-1,2,3,4-tetrahydropyrimidin-1-yl)acetyl]pyrrolidine-2-carboxamide]
0.19	> 100	0.013		CC(C)c1ccc([C@@H](NC(=O)[C@@H]2C[C@@H](F)CN2C(=O)Cc2cnc3ccccn23)c2ccccc2)cc1F [Compound 356, (2S,4R)-4-fluoro-N-[(S)-[3-fluoro-4-(propan-2-yl)phenyl](phenyl)methyl]-1-(2-{imidazo[1,2-a]pyridin-3-yl}acetyl)pyrrolidine-2-carboxamide]
5.76	> 100	0.328		CN(C)C(=O)NCC(=O)N1C[C@H](F)C[C@H]1C(=O)N[C@H](c1ccccc1)c1ccc(C2CC(F)(F)C2)c(F)c1 [Compound 548, (2S,4R)-N-[(R)-[4-(3,3-difluorocyclobutyl)-3-fluorophenyl](phenyl)methyl]-1-{2-[(dimethylcarbamoyl)amino]acetyl}-4-fluoropyrrolidine-2-carboxamide]
0.41	> 100	0.038		CC(=O)N1CCCC(C(=O)N2C[C@H](F)C[C@H]2C(=O)N[C@@H](c2ccccc2)c2ccc(C(C)C)cc2)C1C (stereo partly drawn) [Compound 178, (2S,4R)-1-(1-acetyl-2-methylpiperidine-3-carbonyl)-4-fluoro-N-[(S)-phenyl[4-(propan-2-yl)phenyl]methyl]pyrrolidine-2-carboxamide]
4.27	> 100	0.249		CC1(c2ccc([C@@H](NC(=O)[C@@H]3C[C@@H](F)CN3C(=O)CN3CCN(CC(F)(F)F)CC3=O)c3ccccc3)cc2F)CC1 [Compound 580, (2S,4R)-4-fluoro-N-[(S)-[3-fluoro-4-(1-methylcyclopropyl)phenyl](phenyl)methyl]-1-{2-[2-oxo-4-(2,2,2-trifluoroethyl)piperazin-1-yl]acetyl}pyrrolidine-2-carboxamide]
2.4	> 100	0.058		CC(C)c1ccc([C@@H](NC(=O)[C@@H]2C[C@@H](F)CN2C(=O)CNC(=O)N2CCN(C)CC2)c2ccccc2)nc1 [Compound 283, N-{2-[(2S,4R)-4-fluoro-2-{[(S)-phenyl[5-(propan-2-yl)pyridin-2-yl]methyl]carbamoyl}pyrrolidin-1-yl]-2-oxoethyl}-4-methylpiperazine-1-carboxamide]
1.22	> 100	0.082		CC(C)c1ccc([C@@H](NC(=O)[C@@H]2C[C@@H](F)CN2C(=O)Cc2cnn[nH]2)c2ccccc2)cc1Cl [Compound 672, (2S,4R)-N-[(S)-[3-chloro-4-(propan-2-yl)phenyl](phenyl)methyl]-4-fluoro-1-[2-(1H-1,2,3-triazol-5-yl)acetyl]pyrrolidine-2-carboxamide]
0.87	> 100	0.036		Cc1cnc(CC(=O)N2C[C@H](F)C[C@H]2C(=O)N[C@@H](c2ccccc2)c2ccc(C(C)C)cn2)o1 [Compound 271, (2S,4R)-4-fluoro-1-[2-(5-methyl-1,3-oxazol-2-yl)acetyl]-N-[(S)-phenyl[5-(propan-2-yl)pyridin-2-yl]methyl]pyrrolidine-2-carboxamide]
> 5.67	> 100	0.369		O=C(NC(c1ccccc1)c1ccc(C2CC2)cn1)[C@@H]1C[C@@H](F)CN1C(=O)Cc1cnn[nH]1 (single isomer, unassigned) [Compound 497, (2S,4R)-1-(2-(1H-1,2,3-triazol-5-yl)acetyl)-N—((S) or (R)-(5-cyclopropylpyridin-2-yl)(phenyl)methyl)-4-fluoropyrrolidine-2-carboxamide]
	> 100	0.554	14	CCC(C)c1ccc(C(NC(=O)[C@@H]2C[C@@H](F)CN2C(=O)Cc2cnn[nH]2)c2ccccc2)cc1F (single isomer, unassigned) [Compound 676, (2S,4R)-N-[(R) or (S)-{4-[(2R) or (2S)-butan-2-yl]-3-fluorophenyl}(phenyl)methyl]-4-fluoro-1-[2-(1H-1,2,3-triazol-5-yl)acetyl]pyrrolidine-2-carboxamide]
0.82	> 100	0.066		CN(C)c1cn(CC(=O)N2C[C@H](F)C[C@H]2C(=O)N[C@@H](c2ccccc2)c2ccc(C3CC3)c(F)c2)nn1 [Compound 484, (2S,4R)-N-[(S)-(4-cyclopropyl-3-fluorophenyl)(phenyl)methyl]-1-{2-[4-(dimethylamino)-1H-1,2,3-triazol-1-yl]acetyl}-4-fluoropyrrolidine-2-carboxamide]
1.24	> 100	0.124		C[C@H]1CC[C@@H](C(=O)N[C@@H](c2ccccc2)c2ccc(C3CC3)c(F)n2)N1C(=O)Cc1cnn[nH]1 [Compound 321, (2S,5S)-N-[(S)-(5-cyclopropyl-6-fluoropyridin-2-yl)(phenyl)methyl]-5-methyl-1-[2-(1H-1,2,3-triazol-5-yl)acetyl]pyrrolidine-2-carboxamide]
0.22	> 100	0.011		Cc1ccnn1CC(=O)N1C[C@H](F)C[C@H]1C(=O)N[C@@H](c1ccccc1)c1ccc(C(C)C)c(F)n1 [Compound 782, (2S,4R)-4-fluoro-N-[(S)-[6-fluoro-5-(propan-2-yl)pyridin-2-yl](phenyl)methyl]-1-[2-(5-methyl-1H-pyrazol-1-yl)acetyl] pyrrolidine-2-carboxamide]
